Measured values published in ChEMBL document CHEMBL5608211, “Antibody-drug conjugates for targeted cancer therapy: Recent advances in potential payloads” (Eur J Med Chem, 2024).
Each block holds one molecule with its values, some of them ahead of it. Starred links: 1 amine or outer side, 2 acyl side, 3 side chain; linkers in the order of their positions; H or OH if unused. Positions of bridges follow the written chain, without caps; N, C: chain ends. Non-standard residues stand in square brackets, D forms with d. Residues, ends and D or L forms follow the SMILES beside them. *: point of attachment. X7 = C[C@H]([C@H](N[*:3])C(=O)C[C@@H](Cc1c([*:2])[nH]c2cc(O)ccc12)C(=O)[*:1])[C@@H](O)CO; Dolaproine = CO[C@@H]([C@@H]1CCCN1)[C@@H](C)C(=O)O; X10 = CC(C)[C@@H](C(=O)[*:2])N(C)CCCCN(C)[*:1]; X1 = O=C([C@]1(N[*:1])C[C@@H]1c1ccccc1)[*:2]; Dil = CC[C@H](C)[C@H](NC)[C@@H](CC(=O)O)OC; X3 = CCOP(=O)(OCC)[C@@H](N[*:1])C(=O)[*:2]; Pro(4R-NH2) = N[C@H]1CN[C@H](C(=O)O)C1; X9 = c1ccc(C[C@H](N*)c2nn[nH]n2)cc1; NMe2Val = CC(C)[C@@H](C(=O)*)N(C)C; X8 = CCOP(=O)(O)[C@H](Cc1ccccc1)N*; X6 = C[C@@H](N*)[C@@H](O)c1ccccc1; NMeV = CN[C@H](C(=O)O)C(C)C; X5 = c1ccc(COC2CON(*)C2)cc1; X2 = c1ccc2c(c1)CON(*)C2; Boc = CC(C)(C)OC(=O)*; X4 = C1=CC2CCC1ON2*; NHOH = ON*

What was measured:
MOLM-13 = test: Growth inhibition of human MOLM-13 cells incubated for 5 days by PrestoBlue reagent assay; type: functional; details: MOLM-13, 120 h, time 5 day
CCRF-CEM = test: Cytotoxicity against human CCRF-CEM cells; type: functional, cell-based
Tubulin = test: Displacement of fluorescent Maytansine probe from tubulin (unknown origin) assessed as dissociation constant by competitive binding based fluorescence anisotropy; type: protein-complex assay, Homo sapiens
A2780 = test: Cytotoxicity against human A2780 cells assessed as inhibition of cell growth incubated for 72 hrs by MTT assay; type: functional, cell-based; details: A2780, 72 h
KARPAS-299 = test: Cytotoxicity against human KARPAS-299 cells incubated for 96 hrs by Alamar blue assay; type: functional, cell-based; details: KARPAS-299, 96 h
A2058 = test: Cytotoxicity against human A2058 cells assessed as inhibition of cell growth incubated for 96 hrs by CellTiter-Glo luminescent assay; type: functional, cell-based; details: A2058, 96 h
[1] = Inhibition of RNA polymerase II phosphorylation in human HeLa cells by Western blot analysis; type: cell-based
H3396 [2] = test: Cytotoxicity against human H3396 cells assessed as inhibition of cell growth incubated for 96 hrs by Alamar blue assay; type: functional, cell-based; details: H3396, 96 h
HCT-116 = test: Cytotoxicity against human HCT-116 cells incubated for 96 hrs by resazurin dye based fluorescence spectrometric assay; type: functional, cell-based; details: HCT-116, 96 h
H3396 [3] = test: Cytotoxicity against human H3396 cells incubated for 96 hrs by resazurin dye based fluorescence spectrometric assay; type: functional, cell-based; details: H3396, 96 h
HT-29 [4] = test: Antiproliferative activity against human HT-29 cells incubated for 48 to 96 hrs by MTT assay; type: functional, cell-based
786-0 = test: Antiproliferative activity against human 786-0 cells incubated for 48 to 96 hrs by MTT assay; type: functional, cell-based
SK-BR-3 = test: Growth inhibition of human SK-BR-3 cells incubated for 72 hrs by CellTiter-Glo luminescent assay; type: functional
[5] = Cytotoxicity against human L540cy cells assessed as reduction in cell growth incubated for 4 days by CellTiter-Glo luminescent assay; type: functional, cell-based; details: 96 h
HT-29 [6] = test: Antiproliferative activity against human HT-29 cells assessed as inhibition of cell growth incubated for 96 hrs by SRB assay; type: functional, cell-based; details: HT-29, 96 h
DLD-1 = test: Antiproliferative activity against human DLD-1 cells assessed as inhibition of cell growth incubated for 3 to 4 days; type: functional, cell-based

GI50 (MOLM-13): 0.057 nM
SMILES: CC[C@H](C)[C@@H]([C@@H](CC(=O)N1C[C@@H](N)C[C@H]1[C@H](OC)[C@@H](C)C(=O)N[C@@H](Cc1ccccc1)C(=O)OC)OC)N(C)C(=O)[C@@H](NC(=O)[C@H](C(C)C)N(C)C)[C@H](C)N=[N+]=[N-]

SMILES: COc1ccc(C[C@H]2NC(=O)/C=C/C[C@@H]([C@H](C)[C@H]3O[C@@H]3c3ccc(F)cc3)OC(=O)[C@H](CC(C)C)OC(=O)C(C)(C)CNC2=O)cc1Cl
IC50 (CCRF-CEM): 0.033 nM

SMILES: COc1cc2cc(c1Cl)N(C)C(=O)C[C@H](OC(=O)c1ccccc1)[C@@]1(C)O[C@H]1[C@H](C)[C@@H]1C[C@@](O)(NC(=O)O1)[C@H](OC)/C=C/C=C(\C)C2
Kd (Tubulin): 51 nM | IC50 (A2780): 0.11 nM

SMILES: CC[C@H](C)[C@@H]([C@@H](CC(=O)N1CCC[C@H]1[C@H](OC)[C@@H](C)C(=O)N[C@H](Cc1ccccc1)C(=O)OC)OC)N(C)C(=O)[C@@H](NC(=O)c1ccc(N)cc1)C(C)C
IC50 (KARPAS-299): 0.12 nM

SMILES: CC[C@H](C)[C@@H]([C@@H](CC(=O)N1CCC[C@H]1[C@H](OC)[C@@H](C)C(=O)N[C@@H](Cc1ccccc1)C(=O)O)OC)N(C)C(=O)[C@@H](NC(=O)[C@H](C(C)C)N(C)CCCCN(C)C(=O)OC(C)(C)C)C(C)C (Boc-[X10]V[Dil][Dolaproine]F-OH)
IC50 (A2058): 1 nM

SMILES: CC[C@H](C)[C@@H]1NC(=O)CNC(=O)[C@H]2CC(=O)[C@H]([C@@H](C)[C@@H](O)CO)NC(=O)[C@@H]3C[C@@H](N)CN3C(=O)[C@H](CC(N)=O)NC(=O)[C@H](CSc3[nH]c4cc(O)ccc4c3C2)NC(=O)CNC1=O (GIGCN[Pro(4R-NH2)]; linker N-4-C via X7)
IC50 [1]: 550 nM

SMILES: CC[C@H](C)[C@@H]([C@@H](CC(=O)N1CCC[C@H]1[C@H](OC)[C@@H](C)C(=O)N[C@H](C)[C@@H](O)c1ccccc1)OC)N(C)C(=O)[C@@H](NC(=O)[C@@H](NC)C(C)C)C(C)C (H-[NMeV]V[Dil][Dolaproine]-X6)
IC50 (H3396 [2]): 0.1 nM

SMILES: CCOP(=O)(O)[C@H](Cc1ccccc1)NC(=O)[C@H](C)[C@@H](OC)[C@@H]1CCCN1C(=O)C[C@@H](OC)[C@H]([C@@H](C)CC)N(C)C(=O)[C@@H](NC(=O)[C@@H](NC)C(C)C)C(C)C (H-[NMeV]V[Dil][Dolaproine]-X8)
IC50 (HCT-116): 0.09 nM

SMILES: CC[C@H](C)[C@@H]([C@@H](CC(=O)N1CCC[C@H]1[C@H](OC)[C@@H](C)C(=O)N[C@@H](Cc1ccccc1)c1nn[nH]n1)OC)N(C)C(=O)[C@@H](NC(=O)[C@@H](NC)C(C)C)C(C)C (H-[NMeV]V[Dil][Dolaproine]-X9)
IC50 (H3396 [3]): 6 nM

SMILES: CC[C@H](C)[C@@H]([C@@H](CC(=O)N1CCC[C@H]1[C@H](OC)[C@@H](C)C(=O)N[C@@H](Cc1ccccc1)C(=O)N1CC(OCc2ccccc2)CO1)OC)N(C)C(=O)[C@@H](NC(=O)[C@@H](NC)C(C)C)C(C)C (stereo partly specified) (H-[NMeV]V[Dil][Dolaproine]F-X5)
IC50 (HT-29 [4]): 0.5 nM | IC50 (786-0): 0.5 nM

SMILES: CC[C@H](C)[C@@H]([C@@H](CC(=O)N1CCC[C@H]1[C@H](OC)[C@@H](C)C(=O)N[C@@]1(C(=O)N2Cc3ccccc3CO2)C[C@@H]1c1ccccc1)OC)N(C)C(=O)[C@@H](NC(=O)[C@@H](NC)C(C)C)C(C)C (H-[NMeV]V[Dil][Dolaproine][X1]-X2)
IC50 (HT-29 [4]): 0.5 nM | IC50 (786-0): 0.5 nM

IC50 (HT-29 [4]): 0.5 nM | IC50 (786-0): 0.5 nM
SMILES: CCOP(=O)(OCC)[C@@H](NC(=O)[C@H](C)[C@@H](OC)[C@@H]1CCCN1C(=O)C[C@@H](OC)[C@H]([C@@H](C)CC)N(C)C(=O)[C@@H](NC(=O)[C@@H](NC)C(C)C)C(C)C)C(=O)N1OC2C=CC1CC2 (stereo partly specified) (H-[NMeV]V[Dil][Dolaproine][X3]-X4)

GI50 (SK-BR-3): 0.1 nM
SMILES: CC[C@H](C)[C@@H]([C@@H](CC(=O)N1CCC[C@H]1[C@H](OC)[C@@H](C)C(=O)N[C@@H](CC(C)C)C(=O)NO)OC)N(C)C(=O)[C@@H](NC(=O)[C@H](C(C)C)N(C)C)C(C)C (NMe2Val-V[Dil][Dolaproine]L-{NHOH})

SMILES: O=C(/C=C/c1cccnc1)NCCCCC1CCN(C(=O)c2ccccc2)CC1 [DAPORINAD]
EC50 [5]: 6.7 nM

SMILES: CC[C@H](C)[C@@H]([C@@H](CC(=O)N1CCC[C@H]1[C@H](OC)[C@@H](C)C(=O)N[C@@H](Cc1ccccc1)c1nccs1)OC)N(C)C(=O)[C@@H](NC(=O)[C@H](C(C)C)N(C)C)C(C)C [DOLASTATIN-10]
IC50 (HT-29 [6]): 0.018 nM

IC50 (DLD-1): 13 nM
SMILES: C=C1C[C@@H]2CC[C@@]34C[C@H]5O[C@H]6[C@@H](O3)[C@H]3O[C@H](CC[C@@H]3O[C@H]6[C@H]5O4)CC(=O)C[C@@H]3[C@@H](OC)[C@@H](C[C@H](O)CN)O[C@H]3C[C@H]3O[C@@H](CC[C@@H]1O2)C[C@@H](C)C3=C [ERIBULIN]

SMILES: COc1cc2cc(c1Cl)N(C)C(=O)C[C@H](OC(=O)[C@H](C)N(C)C(C)=O)[C@]1(C)O[C@H]1[C@H](C)[C@@H]1C[C@@](O)(NC(=O)O1)[C@H](OC)/C=C/C=C(\C)C2 [MAYTANSINE]
Kd (Tubulin): 14 nM
